{"source": "patent US6413499B1", "about": "“Methods and kits for maxillary dental anesthesia by means of a nasal deliverable anesthetic” (priority 2000, dated 2002)", "system": "maxillary dental arch", "test": "nasal deliverable anesthetizing composition applied to a patient's nasal cavity", "format": "in vivo", "conditions": "for absorption of the anesthetic with vasoconstrictor: compared to an anesthetic composition applied to nasal tissue not treated with a vasoconstrictor, HCl", "excerpt": "As set forth above, the inventive nasal deliverable anesthetic compositions are delivered to the patient through the nasal cavity. This is done by applying the anesthetic composition to the lateral wall or membrane of the nasal cavity, where it can be absorbed into the nasal tissue, including nerves located within the nasal tissue. In the case where a delivery device having an extension tube is used, good results have been obtained by inserting approximately 15 mm of the tube into the patient's nasal cavity through the nostril. A nasal speculum may advantageously be used to assist in dilating the patient's nostril preparatory to inserting the extension tube so as to facilitate placement of the tube in a desired location within the patient's nasal cavity.\nAs discussed above with respect to FIG. 1, the nasal cavity includes a number of nerves that are responsible for transmitting pain and pressure impulses from the maxillary arch and palate to the brain. Most of these nerves collect at and below the maxillary nerve. Due to the location of the various nerves that collect at or below the maxillary nerve it may be possible to provide various degrees of anesthesia. Control of dosage volume, through control of the number of substance dispensing, can be utilized to determine the anatomical structures to be anesthetized. Minimal dosage volumes tend to yield anesthesia to at least a portion of the maxillary dentition, while greater anesthetic dosages yield anesthesia to the entire maxillary arch.\nThe tetracaine portion included an associated chlorobutanol preservative. The aqueous solution included sodium chloride in water.", "note": "Structures can show the parent of a compound that is named as a salt."}
{"smiles": "Cc1cc(C(C)(C)C)c(O)c(C)c1CC1=NCCN1", "note": "[Oxymetazoline HCl]", "values": [{"measurement": "anesthetic effect of the anesthetic with vasoconstrictor", "setting": "compared to a lidocaine composition applied to nasal tissue not treated with a vasoconstrictor", "result": "enhanced the anesthetic effect of the lidocaine"}, {"measurement": "absorption of the anesthetic with vasoconstrictor", "result": "enhanced the absorption of the tetracaine"}, {"measurement": "absorption of the anesthetic with vasoconstrictor", "setting": "listed as oxymetazoline HCl", "result": "enhanced the absorption of the benzocaine"}]}
